In US20230144898A1, “INHIBITOR OF ASPARTIC ACID SYNTHESIS IN TUMOR CELLS, INHIBITOR OF SPHEROID FORMATION OF TUMOR CELLS, INHIBITOR OF TUMOR CELL METASTASIS, ACTIVITY ENHANCER OF GLYCOLYTIC INHIBITOR, AND PHARMACEUTICAL COMPOSITION FOR SUPPRESSING AND/OR PREVENTING TUMOR METASTASIS” (CCI HOLDINGS INC., priority 2020, published 2023):

Assays:
[1] = system: mitochondrial respiratory chain Complex I; experiment: MitoCheck Complex Activity Assay (Test Example 9); format: biochemical; conditions: II, II/III, IV and V tested
Procedure: Specifically, using the MitoCheck Complex Activity Assay Kit (Cayman Chemical Company, Ann Arbor, MI, USA), extent of relative activity of each of Complex I, Complex II, Complex II/III, Complex IV and Complex V constituting the mitochondrial respiratory chain that was reduced by neopetasin treatment was examined. Furthermore, as a negative control section, DMSO was administered to perform the same experiment. In addition, as a positive control section, rotenone (Complex I), TTFA (Complex II), antimycin A (Complexes II/III), KCN (Complex IV), and oligomycin (Complex V) were each administered, and the same experiment was conducted.

[2] = system: mitochondria in B16F10 cells; experiment: Electron microscope observation of treated cells (Test Example 8); format: cell-based, mouse; conditions: neopetasin 3 µM, metformin 5000 µM
Procedure: Following the above results, the cells respectively treated with neopetasin (3 µM) and metformin (5000 µM) in the above were observed using an electron microscope. Furthermore, DMSO was administered to the negative control section, and the same experiment was performed.

[3] = system: B16F10 cells; experiment: Western blotting, temporal changes of AMPK, FAK, Akt, ERK1/2 (Test Example 11); format: cell-based, mouse; conditions: 3 µM; 3, 8, 24 and 56 hours
Procedure: Specifically, for B16F10 cells treated with neopetasin (3 µM) or metformin (5000 µM) through the same method as in Test Example 1, the cells were recovered at each of 3 hours, 8 hours, 24 hours, and 56 hours after the treatment with these compounds, and the contents of various proteins were measured by Western blotting through the same method as in Test Example 10. Furthermore, DMSO was administered to the negative control section, and the same experiment was performed.

[4] = system: mouse-derived metastatic breast cancer cells Jyg-MC(B); experiment: Mouse natural metastasis model (Test Example 12); format: in vivo
From the text: In general, the metastasis process follows the course of primary tumor formation, invasion of blood vessels and lymphatic vessels, and fixation and proliferation to lung. Here, the model prepared in Test Example 2 verifies only kinetics of tumor cells after entry into the blood vessel, and the metastasis phenomenon occurring in the actual clinical example also includes other processes in addition to invasion of blood vessels and lymphatic vessels from the primary tumor. Thereupon, in this test example, a subcutaneous tumor (a primary tumor) was generated in a mouse, and a model in which the tumor cells metastasized to lung following all metastasis processes (a natural metastasis model) was prepared.
Specifically, to start with, in order to prepare a natural metastasis model, a nude mouse (BALBc nu/nu, female, 4 weeks old, purchased from Japan SLC) was subcutaneously inoculated with mouse-derived metastatic breast cancer cells Jyg-MC(B). After 24 days of incubation, neopetasin (NP) was administered intraperitoneally at a dose of 50 mg/kg and treated a total of 6 times for 16 days (inoculation at 0, 2, 4, 6, 10, 14 days, respectively). Note that treatment procedure at this time is illustrated in FIG. 13.

[5] = 50 mg/kg intraperitoneally, 6 times for 16 days

## C=C(C)[C@H]1C[C@@]2(C)C(=CC1=O)CC[C@@H](OC(=O)/C(C)=C\C)[C@@H]2C [Neopetasin, neopetasin]
[1]
  relative activity of mitochondrial respiratory chain complexes: selectively reduced only the relative activity of the mitochondrial respiratory chain Complex I
[2]
  influence on mitochondria (electron microscope): most mitochondria were vacuolated
[3]
  AMPK change: changes at the earliest stage (3 hours)
  Akt and ERK: inactivated
  FAK: inactivated
[4]; [5]
  lung metastasis lesions: significant decrease in lung metastasis lesions
  lymph node metastasis (weight of the axillary lymph node): exhibits an inhibitory effect on lymph node metastasis
[4]; excluding examples without lymph node swelling
  degree and weight of lymph node swelling: decreased
